These results are taken from a melting point compilation (Tetko et al.).

The structures appear in SMILES notation. Some results are limits rather than exact numbers.

One may read the melting point as the temperature of the solid-liquid transition.

`CC(=O)C(=Cc1ccccc1)C(=O)OC1CC(C)CCC1C(C)C` (centres undefined) showed a melting point of 133 °C.
`CSc1nsc(SC)c1C(=O)Nc1ccc(Cl)cc1` showed a melting point of 168 to 170 °C.
With `Ic1c(-c2ccccc2)cccc1-c1ccccc1` the figure was 115 °C.
`O=[N+]([O-])c1ccc2ncccc2c1` came in with a melting point of 154 °C.
The result for `CCCCCSc1ncccc1C(=O)O` reads 118 to 120 °C; that for `COc1cc(O)c(C(C)=O)c(OC)c1`, 82 °C; that for `CC(C)(C)c1cc(CO)cc(C(C)(C)C)c1O`, 140 °C.
With `O=C(C1=NN(c2ccccc2)C2C(=O)N(c3ccc([N+](=O)[O-])cc3)C(=O)C12)c1ccc(Br)cc1` (centres undefined) the figure was 151 °C; with `N#CC(O)C(Cl)(Cl)Cl` (centres undefined), 61 °C; with `O=C(O)c1ccc(OC2CCOCC2)nc1`, 168 to 170 °C.
With `NC(CN(Cc1ccccc1)c1ccccc1)=NO` the figure was 107 °C; with `NC(=S)c1ccc(C2OCCO2)cc1`, 150 to 154 °C; with `O=C(O)C1=CCCc2ccccc21`, 125 °C.
`CC/C(=C(/CC)c1ccc(O)cc1)c1ccc(O)cc1`: the melting point is 172 °C.
Turning to `CC1OC(Oc2c(-c3ccc(O)c(O)c3)oc3cc(O)cc(O)c3c2=O)C(O)C(O)C1O` (centres undefined), the melting point was found to be 170 °C.
Compound `COC(=O)CCCC(=O)OC` came in with a melting point of -37 °C.
The result for `Cc1cc(I)c(C)c(C)c1C` reads 31 °C; that for `O=C(O)CSC=Cc1ccccc1`, 81 to 84 °C; that for `CC(C=CC1=C(C)CCCC1(C)C)=CC=CC(C)=CC(=O)O`, 185 °C.
In turn, `Clc1ccc(OCCCCBr)cc1` showed a melting point of 30 to 31 °C.
The result for `COC(=O)c1cc2ccccc2c(OC(=O)c2ccccc2C)c1C(=O)OC` reads 138 to 140 °C; that for `O=S(=O)(Cl)c1cnc(Cl)c(Br)c1`, 68 °C; that for `Nc1c(CN2CCOCC2)c(=O)oc2ccccc12`, 192 °C.
With `Cc1ccncc1C=NO` the figure was 180 °C.
The result for `CCOc1ccccc1OS(=O)(=O)NC(=O)Nc1nc(OC)cc(OC)n1` reads 150 °C.
Compound `O=C(O)C(F)(F)c1ccccc1` had a melting point of 75 °C.
With `c1ccc2sc(SN3CCOCC3)nc2c1` the figure was 85 °C; with `COC(=O)Cc1ccc(O)cc1`, 57 °C.
The result for `CCOC(=O)c1c(C)cc(O)cc1O` reads 132 °C; that for `O=C(c1ccccc1)N1CCCCC1`, 49 °C.
With `O=C(O)[C@H]1NCC[C@@H]1c1ccccc1` the figure was 234 to 236 °C; with `c1ccc2sc(SNC3CCCCC3)nc2c1`, 98 °C.
`CC(=O)Nc1ccc(F)cc1Cl`: the melting point lay in the range of 117 to 120 °C.
For the compound `CC(C)(C(=O)O)C(F)(F)F`, the melting point turned out to be 70 °C.
With `Nc1ccc(C=O)cc1` the figure was 71.5 °C; with `Cc1ccccc1CCO`, 2 °C; with `FC(F)(F)c1nnc(S)n1N=Cc1ccc(Cl)cc1`, 255 °C.
Turning to `CCCCC(=O)c1ccc(N)cc1`, the melting point was found to be 74.5 °C.
With `Cc1cc(F)ccc1CC#N` the figure was 26 °C; with `Nc1cccc2c1C(=O)c1cccc(Cl)c1C2=O`, 207 °C.
With `NNC(=O)c1csc(-c2ccccc2)n1` the figure was 137 to 138 °C; with `CCOC(=O)c1c(-c2ccccc2)[nH]c2cc3[nH]c(-c4ccccc4)c(C(=O)OCC)c3cc12`, over 140 °C; with `FC(F)(F)c1ccc(N2CCNCC2)cc1`, 89 to 92 °C.
With `COc1ccc2nc(-c3ccccc3)cc(Cl)c2c1` the figure was 121 to 124 °C.
